# Experimental data published in US20050159390A1, “Treatment and prevention of HIV and other viral infections” (priority 1998, published 2005).
# Where two headings read alike, the source gives them in different places.
# Tests used:
# HIV-1III B = experiment: HIV-1 P24 output in activated human PBMCs, test solution mixed with virus overnight, day 9; type: cell-based; details: for inhibition at 5000 µg/mL (stock): Human immunodeficiency virus 1, PBMC, 216 h, read-out: Inhibition % of the control (P24 output)
# Protocol: Research Grade Purified d-Galactose (CAT# g404, lot 117H00431, FW 180.2, Sigma Chemical Co., St. Louis, Mo.) was dissolved in saline at a concentration of 5 mg/ml. The solution was allowed to stand at room temperature for 15 minutes and mixed by vortex until the galactose was completely dissolved. The galactose solution was divided into two equal aliquots. Stabilizing solution (0.1 ml) was added to one aliquot, then vortexed and incubated at room temperature for 30 minutes. After mixing again, the mixture was centrifuged at 1500 g for 30 minutes and the supernatant was filtered through a 0.2 μm filter and transferred to a sterile 15 ml tube. The solution was sterilized by gamma radiation (2.5 mega RADs) with 15 minutes exposure. The aliquot without the stabilizing solution was labeled “1A” and the aliquot containing the stabilized solution was labeled “1B”. […] […] Control solutions were water.
# One ml of each of the dilutions of the test solution or control was mixed with an equal volume of HIV-1III B (˜50 TCID50/2×10^5 cells) to infect activated human PBMCs overnight at 37° C. (3×10^5 cells/dilution). HIV-1III B is a laboratory-adapted strain. The cells then were washed and placed in culture media containing the indicated dilution of the test solution in triplicate wells ([…], ½ medium changes with media containing the indicated dilutions of test solution were made at ˜3 day intervals). The conditioned media were tested for HIV-1 P24 output on day 9 using the DuPont P24 assay kit. The control was infected PBMCs in the absence of test solutions. Results are shown in Table 9 and are measured as the Inhibition % of the control.
# HIV-1 IIIB = experiment: HIV-1 P24 output in activated human PBMCs, test solutions added post infection; type: cell-based; details: repeat with further dilutions; dilution 1:1000
# Protocol: In addition, a similar experiment was performed, except that test solutions were added post infection, at the time of plating into the triplicate wells.
# X4 strain LAI/IIIB = experiment: RT activity in infected PBMCs treated with carbohydrates; type: cell-based, HIV; details: summary of Table 17
# Protocol: Reverse Transcriptase Activity Assay: A microtiter based reverse transcriptase (RT) reaction was utilized as described by Buckheit et al., (1991), AIDS Research and Human Retroviruses, 7: 295-302. Tritiated thymidine triphosphate (3H-TTP) was suspended in distilled H2O at 5 Ci/mL. Poly rA and oligo dT were prepared as a stock solution which was kept at −20° C. RT reaction buffer was prepared fresh on a daily basis and contained 125 μL 1M EGTA, 125 μL dH2O, 110 μL 10% SDS, 50 μL 1M Tris (pH 7.4), 50 μL 1M DTT, and 40 μL 1M MgCl2. These three solutions were mixed together in a ratio of 2 parts 3H-TTP, 1 part poly rA:oligo dT, and 1 part reaction buffer. Ten microliters of this reaction mixture were placed in a round bottom microtiter plate and 15 μL of virus containing supernatant were added and mixed. The plate was incubated at 37° C. in a water bath with a solid support to prevent submersion of the plate and incubated for 60 minutes. […] Opti-Fluor-O (Packard) was added to each sample and incorporated radioactivity was quantified utilizing a Wallac 1450 MicroBeta Plus liquid scintillation counter. […]
# No carbohydrates were added to the control sample. RT activity was determined at 3, 6, 9, 13, 17, and 20 days post-infection (PI) with X4 strain LAI/IIIB.
# PBMCs = type: cell-based, human
# Protocol: For the standard PBMC assay, PHA-P stimulated cells from at least two normal donors were pooled, diluted in fresh medium to a final concentration of 1×10^6 cells/mL, and plated in the interior wells of a 96 well round bottom microplate at 50 μL/well (5×10^4 cells/well). Test drug dilutions were prepared at a 2× concentration in microfuge tubes and 100 μL of each concentration was placed in appropriate wells in a standard format. A predetermined dilution of virus stock was placed in each test well (50 μL, final MOI≅0.1). Wells with cells and virus alone were used for virus control. Separate plates were prepared identically without virus for drug cytotoxicity studies using an XTT assay system. […]
# (§1) Tetrazolium dye staining of screening plates: After 6 days of incubation (37° C. with 5% CO2), the test plates were analyzed by staining with the tetrazolium dye XTT (2,3-b (2-methoxy-4-nitro-5-sulfophenyl)-2H-tetrazolium-5-carboxanilide). XTT-tetrazolium is metabolized by mitochondrial enzymes of metabolically active cells to a soluble formazan product, allowing the rapid quantitative analysis of the inhibition of HIV-induced cell killing by anti-HIV compounds. […] Plates were sealed with adhesive plate sealers and inverted several times to mix the soluble formazan product and the plate was read spectrophotometrically at 450 nm with a Molecular Devices Vmax plate reader. […]
# HIV-1RF = experiment: CEM-SS cell-based assay, inhibition of HIV-induced cell killing (XTT); details: CEM-SS cells
# Protocol: (§2) Cell Preparation: Prior to infection, CEM-SS cells were grown in complete tissue culture medium (RPMI 1640 medium with 10% heat-inactivated fetal bovine serum, 2 mM L-glutamine, 100 U/mL penicillin, 100 μg/mL streptomycin, 10 μg/mL gentamycin) and transferred to T-150 flasks. On the day preceding the assay, the cells were split 1:2 to assure the cells would be in an exponential growth phase at time of infection. On the day of assay, the cells were washed twice with tissue culture medium and resuspended in fresh tissue culture medium. […]
# Virus Preparation: Pre-tittered aliquots of HIV-1ROJO and HIV-1RF were removed from the freezer (−80° C.) and thawed to room temperature in a biological safety cabinet. The virus was resuspended and diluted into tissue culture medium such that the amount of virus added to each well in a volume of 50 μL will be the amount determined to give complete cell killing at 6 days post-infection.
# Tetrazolium dye staining of screening plates: After 6 days of incubation (37° C. with 5% CO2), the test plates were analyzed by staining with the tetrazolium dye XTT (2,3-b (2-methoxy-4-nitro-5-sulfophenyl)-2H-tetrazolium-5-carboxanilide). XTT-tetrazolium is metabolized by mitochondrial enzymes of metabolically active cells to a soluble formazan product, allowing the rapid quantitative analysis of the inhibition of HIV-induced cell killing by anti-HIV compounds. […]
# HIV-1IIIB = experiment: as above; details: CEM-SS cells
# CEM-SS cells = type: cell-based
# Protocol: as §2
# as §1, with “reader. Indices such as % CPE Reduction (cytopathic effects), % Cell Viability, IC25, IC50, IC95, TC25, TC50, and TC95 and other indices were calculated.” for “reader.”
# [1] = dilution 1:40 of 5 mg/ml solution
# [2] = dilution 1:20 of 5 mg/ml solution
# [3] = dilution 1:80 of 5 mg/ml solution
# [4] = dilution 1:160 of 5 mg/ml solution
# [5] = dilution 1:10 of 5 mg/ml solution
structure (smiles),measurement,setting,value
"O=C(CO)N[C@H]1[C@H]([C@H](O)[C@H](O)CO)OC(O)(C(=O)O)C[C@@H]1O (single isomer, unassigned) [2B, N-glycolylneuraminic acid]",Inhibition % of the control (P24 output),HIV-1III B; [1],61%
same,Inhibition % of Control (P24 output),HIV-1 IIIB,1%
"CC(=O)N[C@H]1[C@H]([C@H](O)[C@H](O)CO)OC(O)(C(=O)O)C[C@@H]1O (stereo partly shown) [N-acetylneuraminic acid, reference compound]",RT activity in treated cells (in words),X4 strain LAI/IIIB,decreased RT activity was observed only with high concentrations
"O=C(CO)N[C@H]1[C@H]([C@H](O)[C@H](O)CO)OC(O)(C(=O)O)C[C@@H]1O (single isomer, unassigned) [2A, N-glycolylneuraminic acid]",inhibition at 5000 µg/mL (stock),HIV-1III B; [2],78%
same,inhibition at 5000 µg/mL (stock),HIV-1III B; [1],66%
same,inhibition at 5000 µg/mL (stock),HIV-1III B; [3],41%
same,inhibition at 5000 µg/mL (stock),HIV-1III B; [4],19%
same,Inhibition % of Control (P24 output),HIV-1 IIIB,7%
"OC[C@H]1O[C@H](O[C@H]2[C@@H](O)[C@@H](CO)OC(O)[C@@H]2O)[C@H](O)[C@@H](O)[C@H]1O (single isomer, unassigned) [3A, galactose-α 1,3-galactose]",Inhibition % of the control (P24 output),HIV-1III B; [2],3.6%
same,Inhibition % of the control (P24 output),HIV-1III B; [1],2.2%
same,Inhibition % of the control (P24 output),HIV-1III B; [3],1.4%
same,Inhibition % of the control (P24 output),HIV-1III B; [4],0.4%
"Cc1cn([C@H]2C[C@H](N=[N+]=[N-])[C@@H](CO)O2)c(=O)[nH]c1=O [AZT, reference compound]",CC50,PBMCs,> 4 µM
same,IC50,HIV-1RF,0.005 to 0.007 µM
same,IC50,HIV-1IIIB,0.011 to 0.017 µM
same,CC50,CEM-SS cells,> 1 µM
"OC[C@H]1O[C@H](O[C@H]2[C@@H](O)[C@@H](CO)OC(O)[C@@H]2O)[C@H](O)[C@@H](O)[C@H]1O (single isomer, unassigned) [3B, galactose-α 1,3-galactose]",Inhibition % of the control (P24 output),HIV-1III B; [5],4.6%
same,Inhibition % of the control (P24 output),HIV-1III B; [2],3.6%
same,Inhibition % of the control (P24 output),HIV-1III B; [1],1.8%
same,Inhibition % of the control (P24 output),HIV-1III B; [3],1.1%
same,Inhibition % of the control (P24 output),HIV-1III B; [4],0.5%
"O=C[C@H](O)[C@@H](O)[C@@H](O)[C@H](O)CO [1A, d-Galactose]",inhibition at 5000 µg/mL (stock),HIV-1III B; [5],4%
same,inhibition at 5000 µg/mL (stock),HIV-1III B; [2],5%
same,inhibition at 5000 µg/mL (stock),HIV-1III B; [1],4%
same,inhibition at 5000 µg/mL (stock),HIV-1III B; [3],2%
same,inhibition at 5000 µg/mL (stock),HIV-1III B; [4],2%
"O=C[C@H](O)[C@@H](O)[C@@H](O)[C@H](O)CO [1B, d-Galactose]",Inhibition % of the control (P24 output),HIV-1III B; [5],7%
same,Inhibition % of the control (P24 output),HIV-1III B; [2],5%
same,Inhibition % of the control (P24 output),HIV-1III B; [1],3%
same,Inhibition % of the control (P24 output),HIV-1III B; [3],4%
same,Inhibition % of the control (P24 output),HIV-1III B; [4],2%
